The source of these data is ChEMBL document CHEMBL3507680, “University of Dundee, Gates Library screen for HepG2 cell viability”.

The nature of this data set: Human HepG2 cell viability assay in 384 well format. It counts as toxicity, cell-based. Also noted: dose 125 nL, time 70.5 hour; cytotoxicity at 70.5 h: concentration not given beside the values. Conditions: HepG2 cells, read-out: Inhibition.
For `COc1ccccc1CN(Cc1cccc(C)c1)C(=O)[C@@H](N)CC(=O)O`, the cytotoxicity at 70.5 h turned out to be 8.65%.
The same measure for `CCN(CC)c1ccc(C2C3=C(COC3=O)Nc3[nH]nc(C)c32)cc1` (centres undefined): -4.13%.
Regarding `CC1CN(C)c2ccccc2CN1C(=O)NCc1ccon1` (centres undefined), the cytotoxicity at 70.5 h is -0.0778%.
Then `Cc1nc(CN2C(=O)CC[C@@H]3[C@H]2CCN3C2CCOCC2)cs1`, with -2.88%; and `CCn1cc(CN2CCN(C(=O)c3cc(C)c(C)s3)CC2)c(C)n1`, with -10.4%; and `Cc1cccc(CN2C(=O)C[C@H]3[C@@H]2CCN3Cc2nccs2)n1`, with -22.3%.
In the case of `CC(C)[C@@H]1CN(C(=O)CCc2ccc(F)cc2)C[C@H]1C(=O)O`, the cytotoxicity at 70.5 h was determined as 28.6%.
As for `O=C(NCCn1nc(C2CCNC2)c2cccnc21)C1CCC1` (centres undefined), the cytotoxicity at 70.5 h stood at 2.22%.
As for `COc1ncccc1CNC(=O)NCCNS(C)(=O)=O`, the cytotoxicity at 70.5 h is -2.56%.
Consider `COC(=O)C1Cc2nc[nH]c2CN1Cc1ccc(Sc2ncccn2)o1` (centres undefined), for which the cytotoxicity at 70.5 h was -0.897%.
The same measure for `CN(Cc1cn2c(n1)CN(C(=O)N(C)C)CC2)Cc1ccco1`: -5.21%; for `CCOCC1CN(C(=O)Cc2cccs2)Cc2ccnn2C1` (centres undefined): -9.44%.
As to `N#Cc1ccc(C(=O)N2CCn3cc(CN4CCCCC4)nc3C2)cc1`, the cytotoxicity at 70.5 h is -11.7%.
Then `COc1ccc2c(ccn2CCC(=O)NCc2ccc(C(=O)O)cc2)c1`, with -13.5%; and `Cc1cc(C)nc(N2CCC(CNC(=O)c3cnccn3)CC2)n1`, with 3.07%.
Then `Cc1cc(C)c(CNC(=O)N2CCN(c3cnccn3)CC2)c(=O)[nH]1`, with -4.71%; and `O=C(CSCc1ccncc1)NCC1CCN(C2CC2)C1` (centres undefined), with 1.83%.
Then `Cc1ccc(-c2nc(CNC(C)CCO)[nH]c2-c2ccccn2)cc1` (centres undefined), with 1.74%; and `N#Cc1c(N2CCN(CC3CCOC3)CC2)nc2ccccn12` (centres undefined), with -1.45%; and `CCCc1cc(NC2CCc3ncnn3C2)n2ncnc2n1` (centres undefined), with 0.783%.
Turning to `CC(C)(C)NC(=O)[C@@H]1CNC[C@]12Cc1ccccc1C(=O)N2`, the cytotoxicity at 70.5 h was -4.03%.
Then `Cc1nn(C)c2ncc(CN3CCN(Cc4ccco4)CC3)cc12`, with -18.7%; and `COc1c(CNC(c2ccccc2)c2ccc(F)cc2)c(C)nn1C` (centres undefined), with 24%.
The same measure for `CC(=O)Nc1nc(C(=O)NCCOc2ccccc2)cs1`: -6.89%.
The same measure for `O=C(NC1(c2nnn(CC3CCCO3)n2)CCCC1)c1ccccc1` (centres undefined): -4.54%.
With `Cc1ccc(C(=O)OC(C)Cn2cccn2)c(=O)[nH]1` (centres undefined), the cytotoxicity at 70.5 h was -0.535%.
Turning to `CCn1cnnc1C1CCN(C(=O)c2ccc3c(c2)nnn3C)CC1`, the cytotoxicity at 70.5 h turned out to be 22.3%.
On to `CCOCC1COCCC12CCN(C(=O)C1=CCCC1)CC2` (centres undefined), for which the cytotoxicity at 70.5 h is -5.05%.
The same measure for `O=C(C1CCCCC1)N1CCN(Cc2nc(-c3ccco3)no2)CC1`: -5.01%; for `Cc1cc(CN2CCC(CNS(=O)(=O)c3ccc(Br)s3)CC2)c(C)o1`: -7.28%.
The same measure for `Cc1ccn(-c2ccc(N3CCCN(Cc4ccccc4)CC3)nn2)n1`: 2.19%.
`CCCNC(=O)CNC(=O)c1scnc1C`: the cytotoxicity at 70.5 h is 3.25%.
The same measure for `Cc1cnn(CC2CCCCN2Cc2cnc(C)s2)c1` (centres undefined): -12.5%; for `Cc1cccc(N2CCCC3(C2)CN(S(C)(=O)=O)CCO3)c1` (centres undefined): -4.48%.
Then `COCCN1C(=O)C[C@@H]2[C@H]1CCN2C(=O)c1ccc[nH]1`, with -5.24%.
The same measure for `O=C(CCc1ccc(Br)cc1)NCc1nnc[nH]1`: -9.74%.
As for `Cc1cnccc1CN1C[C@@H](O)[C@H](Oc2ccccc2)C1`, the cytotoxicity at 70.5 h is -5.34%.
In the case of `CN1CCN(CC2(O)CCCN(C(=O)Cc3cccc(O)c3)CC2)CC1` (centres undefined), the cytotoxicity at 70.5 h was -12.4%.
Take `Cc1ccc(C)c(OCC(=O)NC2CCN(c3ccccn3)CC2)c1`: the cytotoxicity at 70.5 h is -11.1%.
